{
  "source": "patent US6831104B2",
  "about": "“Insect pest eradication system” (priority 2000, dated 2004)",
  "key": {"live fire ant colony [1]": {"system": "live fire ant colony", "assay": "Test 8: ethanol and water; trans-dichloroethylene/ethanol solution then Diazinon solution", "parameters": "species or system Red Fire Ant", "conditions": "in vivo", "description": "In eighth and ninth tests, the method of the seventh test was duplicated using two other alcohols, namely ethanol and isopropanol."}, "live fire ant colony [2]": {"system": "live fire ant colony", "conditions": "in vivo"}, "active fire ant colonies": {"system": "active fire ant colonies", "assay": "Test 7: methanol alone; trans-dichloroethylene/methanol solution then Diazinon solution", "type": "in vivo, Red Fire Ant", "conditions": "for fire ant activity upon surface of mound: upon wetting first mound (about 5 inches) with the alcohol alone", "description": "In the seventh test, active fire ant colonies were treated with methanol and then with a mixture of methanol plus trans-dichloroethylene. Additionally, an aqueous Diazinon® solution was applied to a targeted mound following application of the latter mixture. First, an active fire ant mound, approximately 5 inches in diameter, was treated with enough methanol to wet the surface of the mound. […] Then a solution of three parts methanol to one part trans-dichloroethylene was applied to the surface of a second fire ant mound approximately 8 inches in diameter. […] After five minutes, the second mound was pierced in several places with a steel shaft. A Diazinon® solution was then applied to the mound. At no time were ants observed exiting the second mound."}, "active fire ant mound": {"system": "active fire ant mound", "assay": "General experimental method: knockout agent mixture then insecticide on fire ant mound, excavation of plugs", "type": "in vivo, Red Fire Ant", "conditions": "applied superficially to a fire ant mound", "description": "The experimental method used herein entailed first preparing a mixture of 1 part trans-dichloroethylene (knockout agent) and 2 parts vegetable oil (liquid Crisco® was the vegetable oil most often used in the test) and then applying the mixture to the surface of an active fire ant mound 12 inches or less in surface diameter. The oil with the knockout agent is preferably biodegradable and miscible with the knockout agent. Units of measure are in pints, with the mixture comprising approximately ½ pint trans-dichloroethylene for every pint of vegetable oil. Approximately one-quarter (¼) pint of the trans-dichloroethylene/vegetable oil mixture was applied to a fire-ant hill about 12-inches in surface diameter.\nThe next step entailed applying a suitable insecticide to the fire ant mound. The insecticide was a commercially available Diazinon® applied one of two forms onto a fire ant mound that had been treated with the trans-dichloroethylene mixture. […]\nFollowing all of these tests, the targeted fire ant colonies were excavated in the form of plugs. These “plugs” of excavated earth that had comprised the fire ant colony measured about 12″×12″×12. […] Hundreds, if not thousands, of dead individual worker ants, dead ant larvae and eggs were detected. […]"}, "fire ant colony": {"system": "fire ant colony", "assay": "Test 1: trans-dichloroethylene/vegetable oil mixture poured on fire ant colony in 2-gallon flowerpot", "type": "in vivo, Red Fire Ant", "description": "These tests were conducted on active fire ant mounds located primarily upon an acre tract of residential property in Lake Charles, La.\nIn the first test, a mixture of 1 part trans-dichloroethylene to 2 parts vegetable oil (liquid Crisco® brand vegetable oil) was used. A fire ant colony that had established itself within a 2-gallon flowerpot was treated with approximately 1 cup of a trans-dichloroethylene/vegetable oil mixture. The technique involved pouring the liquid mixture onto the surface of the targeted fire ant mound. Observations of fire ant activity were made upon application and following application of the mixture. Afterward, the contents of the infested flower pot were emptied upon a flat, ply-wood surface and dissected. The following results of individual fire ant activity within the treated soil were observed: […]"}},
  "note": "Where two headings read alike, the source gives them in different places.",
  "data": [
    {"smiles": "CCO", "note": "[anhydrous ethanol, ethanol]", "values": [
      {"measurement": "knock out of fire ants within a targeted mound (conclusion)", "setting": "live fire ant colony [1]", "value": "neither serves to knock out fire ants"}
    ]},
    {"smiles": "CC(C)O", "note": "[anhydrous isopropanol, isopropanol]", "values": [
      {"measurement": "knock out of fire ants within a targeted mound (conclusion)", "setting": "live fire ant colony [2]", "value": "neither serves to knock out fire ants"}
    ]},
    {"smiles": "CO", "note": "[methanol]", "values": [
      {"measurement": "knock out of fire ants within a targeted mound (conclusion)", "setting": "active fire ant colonies; in vivo", "value": "does not serve to knockout fire ants"},
      {"measurement": "fire ant activity upon surface of mound", "setting": "active fire ant colonies", "value": "observed exiting the mound"},
      {"measurement": "fire ant activity upon surface of mound", "setting": "active fire ant colonies; listed as pure ethanol", "value": "Significant fire ant activity"}
    ]},
    {"smiles": "Cl/C=C/Cl", "note": "[trans-dichloroethylene]", "values": [
      {"measurement": "incapacitation of individual insects in targeted fire ant mound", "setting": "active fire ant mound", "value": "completely incapacitated"},
      {"measurement": "toxicity to fire ants (conclusion)", "setting": "fire ant colony; small dosages, short periods of exposure", "value": "not itself toxic to fire ants"},
      {"measurement": "evaporation from treated soil", "setting": "fire ant colony; treated soil exposed to the open air", "value": "rapidly evaporates"}
    ]}
  ]
}
